The values that follow come from patent US10745382B2 (BRISTOL-MYERS SQUIBB COMPANY, priority 2015, dated 2020).

Molecules are shown by their SMILES.

The IC50 is the midpoint of a concentration-inhibition curve.

T1 sequence (Q9NZQ7 with tags, fused parts or gaps): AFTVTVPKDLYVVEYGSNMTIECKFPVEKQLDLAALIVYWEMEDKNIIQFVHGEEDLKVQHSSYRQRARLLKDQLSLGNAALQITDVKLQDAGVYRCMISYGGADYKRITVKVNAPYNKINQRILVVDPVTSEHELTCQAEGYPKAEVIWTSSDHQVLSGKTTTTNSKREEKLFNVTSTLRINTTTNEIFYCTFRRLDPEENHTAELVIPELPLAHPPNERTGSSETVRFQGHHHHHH

The first assay has as its target T1, PD-1/PD-L1 (Homo sapiens, UniProt Q9NZQ7).
T1 construct: made in house; host or cells: HEK293T
Nature of the assay: PD-1/PD-L1 Homogenous Time-Resolved Fluorescence (HTRF) binding assay. Particulars: PD-L1-His 10 nM, PD-1-Ig 20 nM; numeric IC50; read-out: Range or IC50. In a few lines: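 Binding measured in dPBS with 0.1% BSA and 0.05% Tween-20, detected by HTRF with europium cryptate anti-Ig (1 nM final) and APC anti-His (20 nM final) added over the binding reaction. Counter-assays used human PD-1-Ig/PD-L2-His (20 and 5 nM) and CD80-His/PD-L1-Ig (100 and 10 nM).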
In general terms: Time-resolved FRET reads energy transfer from a long-lived donor to a nearby acceptor.
Turning to `Cc1c(COc2cc(OCc3cncc(C#N)c3)c(CN(C)C(CO)(CO)CO)cc2Cl)cccc1-c1cccc(OCCCN2CCC(F)(F)C2)c1C` [Example 4121, 5-((4-chloro-5-((3′-(3-(3,3-difluoropyrrolidin-1-yl)propoxy)-2,2′-dimethyl-[1,1′-biphenyl]-3-yl)methoxy)-2-(((1,3-dihydroxy-2-(hydroxymethyl)propan-2-yl)(methyl)amino)methyl)phenoxy)methyl)nicotinonitrile], the IC50 was found to be 0.5 nM.

The same assay, now with this note: PD-L1-His 10 nM, PD-1-Ig 20 nM; value given as range class; read-out: Range or IC50.
With `Cc1c(COc2cc(OCc3cncc(C#N)c3)c(CNC(CO)(CO)CO)c(C)c2Cl)cccc1-c1cccc(OCCCN2CC[C@@H](O)C2)c1C` [Example 4104, (R)-5-((4-chloro-2-(((1,3-dihydroxy-2-(hydroxymethyl)propan-2-yl)amino)methyl)-5-((3′-(3-(3-hydroxypyrrolidin-1-yl)propoxy)-2,2′-dimethyl-[1,1′-biphenyl]-3-yl)methoxy)-3-methylphenoxy)methyl)nicotinonitrile], the IC50 fell in the range of 0.21 to 10 nM.

With `Cc1c(COc2cc(OCc3cncc(C#N)c3)c(CN(CCO)CCO)c(C)c2Cl)cccc1-c1cccc(OCCCN2CC[C@@H](O)C2)c1C` [Example 4105, (R)-5-((2-((bis(2-hydroxyethyl)amino)methyl)-4-chloro-5-((3′-(3-(3-hydroxypyrrolidin-1-yl)propoxy)-2,2′-dimethyl-[1,1′-biphenyl]-3-yl)methoxy)-3-methylphenoxy)methyl)nicotinonitrile], the 50% inhibitory concentration (IC50) fell in the range of 0.21 to 10 nM.

Turning to `Cc1c(COc2cc(OCc3cncc(C#N)c3)c(CN[C@@](C)(CO)C(=O)O)c(C)c2Cl)cccc1-c1cccc(OCCCN2CC[C@@H](O)C2)c1C` [Example 4106, (S)-2-((3-chloro-6-((5-cyanopyridin-3-yl)methoxy)-4-((3′-(3-((R)-3-hydroxypyrrolidin-1-yl)propoxy)-2,2′-dimethyl-[1,1′-biphenyl]-3-yl)methoxy)-2-methylbenzyl)amino)-3-hydroxy-2-methylpropanoic Acid], the IC50 is 0.21 to 10 nM.

As for `Cc1c(COc2cc(OCc3cncc(C#N)c3)c(CN(C)C(C)(CO)CO)c(C)c2Cl)cccc1-c1cccc(OCCCN2CC[C@@H](O)C2)c1C` [Example 4107, (R)-5-((4-chloro-2-(((1,3-dihydroxy-2-methylpropan-2-yl)(methyl)amino)methyl)-5-((3′-(3-(3-hydroxypyrrolidin-1-yl)propoxy)-2,2′-dimethyl-[1,1′-biphenyl]-3-yl)methoxy)-3-methylphenoxy)methyl)nicotinonitrile], the IC50 is 0.21 to 10 nM.

On to `Cc1c(COc2cc(OCc3cncc(C#N)c3)c(CN(C)[C@@](C)(CO)C(=O)O)cc2Cl)cccc1-c1cccc(OCCCN2CC[C@@H](O)C2)c1C` [Example 4108, (S)-2-((5-chloro-2-((5-cyanopyridin-3-yl)methoxy)-4-((3′-(3-((R)-3-hydroxypyrrolidin-1-yl)propoxy)-2,2′-dimethyl-[1,1′-biphenyl]-3-yl)methoxy)benzyl)(methyl)amino)-3-hydroxy-2-methylpropanoic Acid], for which the IC50 fell in the range of 0.21 to 10 nM.

`CCN(Cc1cc(Cl)c(OCc2cccc(-c3cccc(OCCCN4CC[C@@H](O)C4)c3C)c2C)cc1OCc1cncc(C#N)c1)[C@@](C)(CO)C(=O)O` [Example 4109, (S)-2-((5-chloro-2-((5-cyanopyridin-3-yl)methoxy)-4-((3′-(3-((R)-3-hydroxypyrrolidin-1-yl)propoxy)-2,2′-dimethyl-[1,1′-biphenyl]-3-yl)methoxy)benzyl)(ethyl)amino)-3-hydroxy-2-methylpropanoic Acid]: the IC50 fell in the range of 0.21 to 10 nM.

Turning to `Cc1c(COc2cc(OCc3cncc(C#N)c3)c(CNC3(C(=O)O)CC3)cc2Cl)cccc1-c1cccc(OCCCN2CC[C@@H](O)C2)c1C` [Example 4110, (R)-1-((5-chloro-2-((5-cyanopyridin-3-yl)methoxy)-4-((3′-(3-(3-hydroxypyrrolidin-1-yl)propoxy)-2,2′-dimethyl-[1,1′-biphenyl]-3-yl)methoxy)benzyl)amino)cyclopropane-1-carboxylic Acid], the IC50 lay in the range of 0.21 to 10 nM.

Consider `Cc1c(COc2cc(OCc3cncc(C#N)c3)c(CN(CCO)[C@@](C)(CO)C(=O)O)cc2Cl)cccc1-c1cccc(OCCCN2CC[C@@H](O)C2)c1C` [Example 4111, (S)-2-((5-chloro-2-((5-cyanopyridin-3-yl)methoxy)-4-((3′-(3-((R)-3-hydroxypyrrolidin-1-yl)propoxy)-2,2′-dimethyl-[1,1′-biphenyl]-3-yl)methoxy)benzyl)(2-hydroxyethyl)amino)-3-hydroxy-2-methylpropanoic Acid], for which the IC50 was 0.21 to 10 nM.

As for `Cc1c(COc2cc(OCc3cncc(C#N)c3)c(CN3CCCC[C@H]3C(=O)O)cc2Cl)cccc1-c1cccc(OCCCN2CCC(F)(F)C2)c1C` [Example 4112, (S)-1-(5-chloro-2-((5-cyanopyridin-3-yl)methoxy)-4-((3′-(3-(3,3-difluoropyrrolidin-1-yl)propoxy)-2,2′-dimethyl-[1,1′-biphenyl]-3-yl)methoxy)benzyl)piperidine-2-carboxylic Acid], the IC50 lay in the range of 0.21 to 10 nM.

Regarding `Cc1c(COc2cc(OCc3cncc(C#N)c3)c(CN(CCO)CCCO)cc2Cl)cccc1-c1cccc(OCCCN2CCC(F)(F)C2)c1C` [Example 4113], the half-inhibitory concentration (IC50) fell in the range of 0.21 to 10 nM.

Consider `Cc1c(COc2cc(OCc3cncc(C#N)c3)c(CN(C)C(C)(CO)CO)cc2Cl)cccc1-c1cccc(OCCCN2CCC(F)(F)C2)c1C` [Example 4114, 5-((4-chloro-5-((3′-(3-(3,3-difluoropyrrolidin-1-yl)propoxy)-2,2′-dimethyl-[1,1′-biphenyl]-3-yl)methoxy)-2-(((1,3-dihydroxy-2-methylpropan-2-yl)(methyl)amino)methyl)phenoxy)methyl)nicotinonitrile], for which the IC50 lay within 0.21 to 10 nM.

Regarding `Cc1c(COc2cc(OCc3cncc(C#N)c3)c(CN(C)[C@@](C)(CO)C(=O)O)cc2Cl)cccc1-c1cccc(OCCCN2CCC(F)(F)C2)c1C` [Example 4115, (S)-2-((5-chloro-2-((5-cyanopyridin-3-yl)methoxy)-4-((3′-(3-(3,3-difluoropyrrolidin-1-yl)propoxy)-2,2′-dimethyl-[1,1′-biphenyl]-3-yl)methoxy)benzyl)(methyl)amino)-3-hydroxy-2-methylpropanoic Acid], the IC50 was 0.21 to 10 nM.

`Cc1c(COc2cc(OCc3cncc(C#N)c3)c(CNC(CO)CO)cc2Cl)cccc1-c1cccc(OCCCN2CCC(F)(F)C2)c1C` [Example 4116, 5-((4-chloro-5-((3′-(3-(3,3-difluoropyrrolidin-1-yl)propoxy)-2,2′-dimethyl-[1,1′-biphenyl]-3-yl)methoxy)-2-(((1,3-dihydroxypropan-2-yl)amino)methyl)phenoxy)methyl)nicotinonitrile]: the IC50 lay in the range of 0.21 to 10 nM.

For the molecule `Cc1c(COc2cc(OCc3cncc(C#N)c3)c(CNC(C)(CO)CO)cc2Cl)cccc1-c1cccc(OCCCN2CCC(F)(F)C2)c1C` [Example 4117, 5-((4-chloro-5-((3′-(3-(3,3-difluoropyrrolidin-1-yl)propoxy)-2,2′-dimethyl-[1,1′-biphenyl]-3-yl)methoxy)-2-(((1,3-dihydroxy-2-methylpropan-2-yl)amino)methyl)phenoxy)methyl)nicotinonitrile], the IC50 fell in the range of 0.21 to 10 nM.

Turning to `Cc1c(COc2cc(OCc3cncc(C#N)c3)c(CNC(CO)(CO)CO)cc2Cl)cccc1-c1cccc(OCCCN2CCC(F)(F)C2)c1C` [Example 4118, 5-((4-chloro-5-((3′-(3-(3,3-difluoropyrrolidin-1-yl)propoxy)-2,2′-dimethyl-[1,1′-biphenyl]-3-yl)methoxy)-2-(((1,3-dihydroxy-2-(hydroxymethyl)propan-2-yl)amino)methyl)phenoxy)methyl)nicotinonitrile], the half-maximal inhibitory concentration (IC50) was 0.21 to 10 nM.

In the case of `Cc1c(COc2cc(OCc3cncc(C#N)c3)c(CN[C@@](C)(CO)C(=O)O)cc2Cl)cccc1-c1cccc(OCCCN2CCC(F)(F)C2)c1C` [Example 4119, (S)-2-((5-chloro-2-((5-cyanopyridin-3-yl)methoxy)-4-((3′-(3-(3,3-difluoropyrrolidin-1-yl)propoxy)-2,2′-dimethyl-[1,1′-biphenyl]-3-yl)methoxy)benzyl)amino)-3-hydroxy-2-methylpropanoic Acid], the IC50 is 0.21 to 10 nM.

On to `Cc1c(COc2cc(OCc3cncc(C#N)c3)c(CN(C)C(CO)CO)cc2Cl)cccc1-c1cccc(OCCCN2CCC(F)(F)C2)c1C` [Example 4120, 5-((4-chloro-5-((3′-(3-(3,3-difluoropyrrolidin-1-yl)propoxy)-2,2′-dimethyl-[1,1′-biphenyl]-3-yl)methoxy)-2-(((1,3-dihydroxypropan-2-yl)(methyl)amino)methyl)phenoxy)methyl)nicotinonitrile], for which the IC50 lay within 0.21 to 10 nM.

On to `Cc1c(COCCN2CC[C@@H](O)C2)cccc1-c1cccc(COc2cc(OCc3cncc(C#N)c3)c(CNC(CO)CO)cc2Cl)c1C` [Example 4122, (R)-5-((4-chloro-2-(((1,3-dihydroxypropan-2-yl)amino)methyl)-5-((3′-((2-(3-hydroxypyrrolidin-1-yl)ethoxy)methyl)-2,2′-dimethyl-[1,1′-biphenyl]-3-yl)methoxy)phenoxy)methyl)nicotinonitrile], for which the IC50 lay in the range of 0.21 to 10 nM.

Consider `Cc1c(COCCN2CC[C@@H](O)C2)cccc1-c1cccc(COc2cc(OCc3cncc(C#N)c3)c(CN[C@@](C)(CO)C(=O)O)cc2Cl)c1C` [Example 4123, (S)-2-((5-chloro-2-((5-cyanopyridin-3-yl)methoxy)-4-((3′-((2-((R)-3-hydroxypyrrolidin-1-yl)ethoxy)methyl)-2,2′-dimethyl-[1,1′-biphenyl]-3-yl)methoxy)benzyl)amino)-3-hydroxy-2-methylpropanoic Acid], for which the half-maximal inhibitory concentration (IC50) lay in the range of 0.21 to 10 nM.
